In patent publication US9725442B2, “Heterocyclic derivative having PGD2 receptor antagonist activity” (Shionogi & Co., Ltd., priority 2011, dated 2017):
Where two headings read alike, the source gives them in different places.

Tests used:
[1] = target: CRTH2 (Homo sapiens (Human), UniProt Q9Y5Y4); assay: CRTH2 receptor binding inhibitory activity ([3H]-PGD2 displacement, membranes of CRTH2-expressing K562 cell); conditions: [3H]-PGD2 displacement, membrane of CRTH2-expressing K562 cell, read-out: Ki
CRTH2, sequence (Q9Y5Y4 whole entry): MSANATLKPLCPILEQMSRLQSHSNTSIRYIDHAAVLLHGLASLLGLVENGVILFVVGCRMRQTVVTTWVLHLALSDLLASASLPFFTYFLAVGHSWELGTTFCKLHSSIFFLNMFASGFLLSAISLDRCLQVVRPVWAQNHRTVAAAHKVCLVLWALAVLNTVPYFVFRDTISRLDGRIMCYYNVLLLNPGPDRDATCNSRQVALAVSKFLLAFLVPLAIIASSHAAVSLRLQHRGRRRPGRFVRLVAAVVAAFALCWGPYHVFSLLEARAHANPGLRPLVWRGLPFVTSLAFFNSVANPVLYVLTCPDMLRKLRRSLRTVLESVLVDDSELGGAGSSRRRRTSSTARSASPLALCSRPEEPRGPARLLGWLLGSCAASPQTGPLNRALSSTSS
Outline: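 CRTH2-expressing K562 membranes (20 μg/well) in 50 mM Tris/HCl pH 7.4 with 10 mM MgCl2 were incubated with [3H]-PGD2 for 60 min at room temperature, then filtered.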

[2] = target: Human DP1 receptor (Homo sapiens (Human), UniProt Q13258); assay: Human DP1 inhibitory activity in DP1-expressing cell (PGD2-induced cAMP); format: cell-based
Human DP1 receptor, sequence (Q13258 whole entry): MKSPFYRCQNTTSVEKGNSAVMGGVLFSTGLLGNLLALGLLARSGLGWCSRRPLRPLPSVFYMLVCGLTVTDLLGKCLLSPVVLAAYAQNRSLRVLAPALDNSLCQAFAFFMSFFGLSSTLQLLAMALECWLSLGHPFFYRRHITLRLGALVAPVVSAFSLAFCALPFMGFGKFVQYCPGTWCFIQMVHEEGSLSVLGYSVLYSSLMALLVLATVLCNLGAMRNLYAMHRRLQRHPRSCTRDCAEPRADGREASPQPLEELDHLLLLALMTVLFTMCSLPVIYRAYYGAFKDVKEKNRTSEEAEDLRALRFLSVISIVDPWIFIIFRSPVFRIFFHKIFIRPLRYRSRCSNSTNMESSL
Protocol: Compounds were categorized as AA (cAMP is less than 100 nM) and A (cAMP is more than 100 nM and less than 5000 nM) as shown in Table 99 and 100.

[3] = CRTH2 receptor binding, categorized AAAA/AAA
[4] = category of cAMP IC50, human DP1 receptor expressing Jurkut cell
[5] = IC50 of PGD2 (60 nM)-induced cAMP increase, human DP1 receptor expressing Jurkut cell

| Compound | Ki [1, 3] | IC50 [2, 4] | Ki [1] | IC50 [2, 5] |
| --- | --- | --- | --- | --- |
| CCc1ccc(S(=O)(=O)N2C[C@@H](C)[C@@H](n3nc(CC(=O)O)c4ccc(Cl)cc43)C2)cc1 [Compound I-141] | < 100 nM | < 100 nM |  |  |
| CCOc1ccc(S(=O)(=O)N2C[C@H](n3nc(CC(=O)O)c4ccccc43)C[C@@H]2CF)cn1 [Compound I-275] | 100 to 5000 nM | 100 to 5000 nM |  |  |
| CCOc1ccc(S(=O)(=O)N2C[C@@H](C)[C@@H](n3nc(CC(=O)O)c4cc(C)ccc43)C2)cc1 [Compound I-202] | 100 to 5000 nM | < 100 nM |  |  |
| C[C@@H]1CN(S(=O)(=O)c2ccc(OCF)cc2)C[C@@H]1n1nc(CC(=O)O)c2ccccc21 [Compound I-270] | < 100 nM | < 100 nM |  |  |
| CC(C)Oc1ccc(S(=O)(=O)N2C[C@H](n3nc(CC(=O)O)c4ccc(F)cc43)C[C@@H]2COc2ccccc2)cc1 [Compound I-365] | 100 to 5000 nM | < 100 nM |  |  |
| CCOc1ccc(S(=O)(=O)N2C[C@@H](C)[C@@H](n3nc(CC(=O)O)c4ccc(Cl)cc43)C2)cn1 [Compound I-143] | < 100 nM | < 100 nM |  |  |
| CCOc1ccc(S(=O)(=O)N2C[C@@H](C)[C@@H](n3nc(Cc4cc(O)no4)c4ccccc43)C2)cc1 [Compound I-341] | 100 to 5000 nM | 100 to 5000 nM |  |  |
| CC(C)Oc1ccc(S(=O)(=O)N2C[C@@H](C)[C@@H](n3nc(/C=C/C(=O)O)c4ccc(F)cc43)C2)cc1 [Compound I-100] | < 100 nM | 100 to 5000 nM |  |  |
| CC(C)Oc1ccc(S(=O)(=O)N2C[C@@H](CC(F)F)[C@@H](n3nc(CC(=O)O)c4ccc(F)cc43)C2)cc1 [Compound I-44] | < 100 nM | 100 to 5000 nM |  |  |
| COC[C@H]1C[C@@H](n2nc(CC(=O)O)c3ccc(F)cc32)CN1S(=O)(=O)c1ccc(OC(C)C)cc1 [Compound I-17] | < 100 nM | < 100 nM |  |  |
| CC(C)Oc1ccc(S(=O)(=O)N2C[C@H](O)[C@@H](n3nc(CC(=O)O)c4ccc(F)cc43)C2)cc1 [Compound I-25] | < 100 nM | 100 to 5000 nM |  |  |
| CCOc1ccc(S(=O)(=O)N2C[C@@H](C)[C@@H](n3nc(C(F)C(=O)O)c4ccccc43)C2)cc1 (stereo partly drawn) [Compound I-338] | 100 to 5000 nM | < 100 nM |  |  |
| C[C@@H]1CN(S(=O)(=O)c2ccc(C3CC3)cc2Cl)C[C@@H]1n1nc(CC(=O)O)c2ccc(F)cc21 [Compound I-53] | < 100 nM | < 100 nM |  |  |
| CCOc1ccc(S(=O)(=O)N2C[C@@H](C)[C@@H](n3nc(C(C)(OC)C(=O)O)c4ccccc43)C2)cc1 (stereo partly drawn) [Compound I-285] | 100 to 5000 nM | 100 to 5000 nM |  |  |
| CCOc1ccc(S(=O)(=O)N2C[C@@H](C)[C@@H](n3nc(CC(=O)O)c4cc(F)ccc43)C2)cc1 [Compound I-252] | < 100 nM | < 100 nM |  |  |
| COc1ccc(S(=O)(=O)N2C[C@@H](C)[C@@H](n3nc(CC(=O)O)c4ccc(C)cc43)C2)s1 [Compound I-180] | < 100 nM | 100 to 5000 nM |  |  |
| C[C@@H]1CN(S(=O)(=O)c2ccc(OC(F)F)cc2)C[C@@H]1n1nc(CC(=O)O)c2ccc(Cl)cc21 [Compound I-134] | < 100 nM | < 100 nM |  |  |
| CC(C)Oc1ccc(S(=O)(=O)N2C[C@@H](C)[C@@H](n3nc(CC(=O)O)c4cc(F)c(F)cc43)C2)cc1 [Compound I-68] | < 100 nM | < 100 nM |  |  |
| CC(C)Oc1ccc(S(=O)(=O)N2C[C@H](n3nc(CC(=O)O)c4ccc(F)cc43)C[C@H]2c2ccncc2)cc1 [Compound I-362] | 100 to 5000 nM | 100 to 5000 nM |  |  |
| CCOc1ccc(S(=O)(=O)N2C[C@H](n3nc(CC(=O)O)c4ccccc43)C[C@@H]2C)cc1 [Compound I-196] | < 100 nM | < 100 nM |  |  |
| CC(C)Oc1ccc(S(=O)(=O)N2C[C@@H](C)[C@@H](n3nc(CC(=O)O)c4ccc(F)cc43)C2)c(C#N)c1 [Compound I-58] | < 100 nM | < 100 nM |  |  |
| CCOc1ccc(S(=O)(=O)N2C[C@@H](C)[C@@H](n3nc(CC(=O)O)c4ccccc43)C2)c(CCCO)c1 [Compound I-280] | < 100 nM | 100 to 5000 nM | 7.8 nM |  |
| CC(C)Oc1ccc(S(=O)(=O)N2CC[C@@H](n3nc(CC(=O)O)c4ccc(F)cc43)[C@H]2C)cc1 [Compound I-1] | 100 to 5000 nM | 100 to 5000 nM |  |  |
| CCOc1ccc(S(=O)(=O)N2C[C@@H](C)[C@@H](n3nc(CC(=O)O)c4ccc(C)cc43)C2)cn1 [Compound I-111] | < 100 nM | < 100 nM |  |  |
| C[C@]1(F)CN(S(=O)(=O)c2ccc(F)cc2)C[C@@H]1n1nc(CC(=O)O)c2ccccc21 (racemic) [Compound I-227] | < 100 nM | 100 to 5000 nM |  |  |
| CO[C@@H]1CN(S(=O)(=O)c2ccc(OC(C)C)cc2)C[C@@H]1n1nc(CC(=O)O)c2ccc(F)cc21 [Compound I-30] | 100 to 5000 nM | 100 to 5000 nM | 140 nM |  |

| Compound | Ki [1, 3] | IC50 [2, 4] | Ki [1] | IC50 [2, 5] |
| --- | --- | --- | --- | --- |
| C[C@@H]1CN(S(=O)(=O)c2ccc(OCCOC(C)(C)C)cc2)C[C@@H]1n1nc(CC(=O)O)c2ccccc21 [Compound I-193] | 100 to 5000 nM | 100 to 5000 nM |  |  |
| CON=C[C@@H]1CN(S(=O)(=O)c2ccc(OC(C)C)cc2)C[C@@H]1n1nc(CC(=O)O)c2ccc(F)cc21 [Compound I-65] | < 100 nM | 100 to 5000 nM |  |  |
| CC(C)Oc1ccc(S(=O)(=O)N2C[C@@H](C)[C@@H](n3nc(CC(=O)O)c4cc5c(cc43)OCO5)C2)cc1 [Compound I-174] | < 100 nM | < 100 nM | 50 nM | 99 nM |
| CC(C)Oc1ccc(S(=O)(=O)N2C[C@H](n3nc(CC(=O)O)c4ccc(F)cc43)C[C@@H]2CC#N)cc1 [Compound I-18] | < 100 nM | 100 to 5000 nM |  |  |
| COCCOc1ccc(S(=O)(=O)N2C[C@@H](C)[C@@H](n3nc(CC(=O)O)c4ccccc43)C2)cc1 [Compound I-189] | < 100 nM | 100 to 5000 nM |  |  |
| C=CC[C@@H]1CN(S(=O)(=O)c2ccc(OC(C)C)cc2)C[C@@H]1n1nc(CC(=O)O)c2ccc(F)cc21 [Compound I-32] | < 100 nM | < 100 nM |  |  |
| CC(C)Oc1ccc(S(=O)(=O)N2C[C@@H](C)[C@@H](n3nc(CC(=O)NS(C)(=O)=O)c4ccc(F)cc43)C2)cc1 [Compound I-138] | < 100 nM | 100 to 5000 nM | 65 nM |  |
| CCOc1ccc(S(=O)(=O)N2C[C@@H](n3nc(CC(=O)O)c4ccccc43)[C@H](C)[C@H]2C#N)cc1 [Compound I-294] | 100 to 5000 nM | 100 to 5000 nM |  |  |
| Cc1cccn(C[C@H]2C[C@@H](n3nc(CC(=O)O)c4ccc(F)cc43)CN2S(=O)(=O)c2ccc(OC(C)C)cc2)c1=O [Compound I-23] | < 100 nM | 100 to 5000 nM |  |  |
| CC(C)Oc1ccc(S(=O)(=O)N2C[C@H](n3nc(CC(=O)O)c4ccc(F)cc43)C[C@H]2CF)cc1 [Compound I-12] | < 100 nM | 100 to 5000 nM |  |  |
| CC(C)Oc1ccc(S(=O)(=O)N2C[C@H](n3nc(CC(=O)O)c4ccc(F)cc43)C[C@@]2(C)C#N)cc1 [Compound I-105] | < 100 nM | < 100 nM |  |  |
| CC(C)Oc1ccc(S(=O)(=O)N2C[C@H](n3nc(CC(=O)O)c4ccc(F)cc43)C[C@H]2c2ccccn2)cc1 [Compound I-357] | 100 to 5000 nM | 100 to 5000 nM |  |  |
| COCCCOc1ccc(S(=O)(=O)N2C[C@@H](C)[C@@H](n3nc(CC(=O)O)c4ccccc43)C2)cc1 [Compound I-274] | < 100 nM | 100 to 5000 nM |  |  |
| C[C@@H]1CN(S(=O)(=O)c2ccc(OC(F)F)cc2)C[C@@H]1n1nc(CC(=O)O)c2cc(F)ccc21 [Compound I-251] | < 100 nM | < 100 nM |  |  |
| Cc1ccc(S(=O)(=O)N2C[C@@H](C)[C@@H](n3c(C)c(CC(=O)O)c4ccccc43)C2)cc1 [Compound I-288] | < 100 nM | 100 to 5000 nM | 40 nM | 100 nM |
| CC(C)Oc1ccc(S(=O)(=O)N2C[C@H](n3nc(CC(=O)O)c4ccccc43)[C@@](C)(O)C2)cc1 [Compound I-86] | < 100 nM | 100 to 5000 nM |  |  |
| CCOc1ccc(S(=O)(=O)N2C[C@H](n3nc(CC(=O)O)c4ccccc43)[C@@](C)(F)C2)cn1 (racemic) [Compound I-207] | < 100 nM | 100 to 5000 nM |  |  |
| CCOc1ccc(S(=O)(=O)N2C[C@@H](C)[C@@H](n3nc(CC(=O)O)c4ccccc43)C2)c(/C=C/CO)c1 [Compound I-279] | < 100 nM | 100 to 5000 nM |  |  |
| COc1ccc(S(=O)(=O)N2C[C@H](n3nc(CC(=O)O)c4ccccc43)[C@@](C)(F)C2)cn1 (racemic) [Compound I-208] | < 100 nM | 100 to 5000 nM |  |  |
| CCOc1ccc(S(=O)(=O)N2C[C@@H](C)[C@@H](n3nc(CC(=O)O)c4ccccc43)C2)c(C#N)c1 [Compound I-200] | < 100 nM | < 100 nM |  |  |
| CC(C)Oc1ccc(S(=O)(=O)N2C[C@H](n3nc(CC(=O)O)c4ccc(F)cc43)C[C@@H]2COc2nc3ccccc3s2)cc1 [Compound I-334] | 100 to 5000 nM | < 100 nM |  |  |
| CCOc1ccc(S(=O)(=O)N2C[C@H](n3nc(CC(=O)O)c4ccccc43)[C@H](C)[C@@H]2C#N)cc1 [Compound I-333] | < 100 nM | < 100 nM |  |  |
| CC(C)Oc1ccc(S(=O)(=O)N2C[C@H](n3nc(CC(=O)O)c4ccc(F)cc43)C[C@@H]2c2ccccc2F)cc1 [Compound I-302] | 100 to 5000 nM | 100 to 5000 nM |  |  |
| Cc1ccc2c(CC(=O)O)nn([C@H]3CN(S(=O)(=O)c4ccc(OC(C)C)cc4)C[C@]3(C)O)c2c1 [Compound I-87] | < 100 nM | 100 to 5000 nM |  |  |
| CCOc1ccc(S(=O)(=O)N2C[C@@H](C)[C@@H](n3nc(CC(=O)O)c4cc(Cl)ccc43)C2)cn1 [Compound I-162] | 100 to 5000 nM | < 100 nM |  |  |
| CCOc1ccc(S(=O)(=O)N2C[C@@H](C)[C@@H](n3nc(CC(=O)O)c4c(C)cccc43)C2)cn1 [Compound I-206] | 100 to 5000 nM | < 100 nM |  |  |
